The results in this text go back to patent US7157408B2, “Quinoline fungicides” (Valent BioSciences Corporation, priority 2004, dated 2007).

One data set has as its system Cercospora arachidicola. The data set is described as follows: Contact evaluation (microtiter plate). It is filed as cell-based. As to the method: (§1) Compound solution: Contact evaluations were conducted to determine the anti-fungal activity of each compound against Botrytis cinerea, Sclerotinia sclerotiorum, Pythium aphanidermatum, Rhizoctonia solani, Cercospora arachidicola, Mycosphaerella fjiensis, and Monilinia laxa. Five milligrams of each compound were dissolved in 0.5 milliliter of DMSO for a compound stock solution of 1.0% w/v. Compound stock solutions were serial diluted with DMSO to 20, 10, and 2 ppm final well concentration. Fungi preparation: Botrytis cinerea spores were taken from 6-week-old cultures grown at 22C on full strength potato dextrous agar (PDA) plates. Sclerotinia sclerotiorum, Pythium aphanidermatum, Rhizoctonia solani, and Monilinia laxa mycelia were taken from 4- to 10-day-old shake flask cultures grown at room temperature on full strength potato dextrous broth (PDB). Cercospora arachidicola mycelia were taken from 10- to 14-day-old shake flask cultures grown at room temperature on a full strength PDB amended with peanut oil. Mycosphaerella fijiensis mycelia were taken from 10- to 14-day-old shake flask cultures grown at room temperature on V8 juice broth. Sclerotinia sclerotiorum, Pythium aphanidermatum, Rhizoctonia solani, Cercospora arachidicola, and Mycosphaerella fijiensis mycelia (0.4 g mycelia) were blended for 45 seconds in 20 mL sterile de-ionized water. Monilinia laxa mycelia (1 g mycelia) was blended for 45 seconds in 30 mL of sterile de-ionized water. Botrytis cinerea spores were diluted with quarter strength PDB to 1×10^5 spores/mL final well concentration. All mycelia were diluted in water (1:5 mycelia:water) before distributing into the wells. Microtiter plate preparation: Compound solution (10 :L), quarter strength PDB (900 :L) and fungi preparation (100 :L) were sequentially distributed into 48-well microtiter plates (n=3 replications/compound/rate). A blank consisted of quarter strength PDB and fungi preparation. Commercial fungicide controls (100 ppm diluted with water) consisted of Scala for Botrytis cinerea, Dithane F-45 for Mycosphaerella fijiensis, and Benlate for Sclerotinia sclerotiorum, Pythium aphanidermatum, Rhizoctonia solani, Cercospora arachidicola, and Monilinia laxa. Plates were shaken in a circular rotator at room temperature for 20 minutes, then incubated at 25C for 24 to 72 hours, depending on the pathogen. Fungal control ratings: Fungal growth in wells containing the compounds were compared to the positive control and fungal inhibition was rated as full, partial, or none. Final readings were the average of the three wells (Table 1).

In another data set the test system is Pythium aphanidermatum. The data set is described as follows: Contact evaluation (microtiter plate). It is filed as cell-based. As to the method: as §1
The test system of another data set is Monilinia laxa. The data set is described as follows: Contact evaluation (microtiter plate). It is filed as cell-based. The protocol: as §1
The subject of a further data set is Mycosphaerella fijiensis. The data set is described as follows: Contact evaluation (microtiter plate). It is filed as cell-based. As to the method: as §1
Data set [1] concerns Botrytis cinerea. As to the kind of experiment: Contact evaluation (microtiter plate). It is filed as cell-based. As to the method:
as §1

The subject of the next data set is Rhizoctonia solani. The data set is described as follows: Contact evaluation (microtiter plate). It is filed as cell-based. Particulars: Rhizoctinia solani. As to the method:
as §1

In a further data set the test system is Sclerotinia sclerotiorum. The data set is described as follows: Contact evaluation (microtiter plate). It is filed as cell-based. Particulars: Sclerotinia sclerotionum. The protocol:
as §1

Data set [2] has as its system Phaseolus vulgaris (Bush bean cv. Blue Lake 274) leaves. As to the kind of experiment: Detached bean leaf bioassay, phytotoxicity rating. It is filed as in vivo. The note with it: 200 ppm, scale 0=no, 1=slight, 2=moderate, 3=excessive phytotoxicity. The protocol:
Compound solution: Compound solutions were prepared by diluting compound stock solutions (1.0% w/v compound in DMSO) to 200 ppm with 0.01% w/v Triton X-100. Plant material: Middle trifoliate leaves of greenhouse grown Phaseolus vulgaris (Bush bean cv. Blue Lake 274) were excised and placed on a plastic grid above a tray containing moist towels. Treatment method: One half of the adaxial surface of the leaf was treated with the compound solution (100 :L) using a 3 cm Bacti Cell Spreader. A blank consisted of 0.01% w/v Triton X-100. A commercial fungicide control (200 ppm diluted with water) consisted of Scala. After the solutions dried, the trays containing the leaves were covered and held one day in a growth chamber (22C). The adaxial surfaces of the leaves were then inoculated with 5–60 :L droplets of Botrytis cinerea spore solution. Phytotoxicity ratings: Phytotoxicity was rated as 0=no phytotoxicity, 1=slight phytotoxicity, 2=moderate phytotoxicity, or 3=excessive phytotoxicity (Table 2).

Data set [3] relates to Botrytis cinerea. The data set is described as follows: Detached bean leaf bioassay, fungal control. It is filed as in vivo. Particulars: 200 ppm, three days after inoculation, 100 minus percent necrotic area. As to the method: Compound solution: Compound solutions were prepared by diluting compound stock solutions (1.0% w/v compound in DMSO) to 200 ppm with 0.01% w/v Triton X-100. Spore solution preparation: Botrytis cinerea spores were taken from 6-week-old cultures grown at 22C on full strength potato dextrous agar (PDA) plates and harvested in 1:16 frozen orange juice concentrate:water. Botrytis cinerea spore solutions were prepared by diluting spore cultures to 5×10^4 spores/mL with 1:16 frozen orange juice concentrate:water. Plant material: Middle trifoliate leaves of greenhouse grown Phaseolus vulgaris (Bush bean cv. Blue Lake 274) were excised and placed on a plastic grid above a tray containing moist towels. Treatment method: One half of the adaxial surface of the leaf was treated with the compound solution (100 :L) using a 3 cm Bacti Cell Spreader. A blank consisted of 0.01% w/v Triton X-100. A commercial fungicide control (200 ppm diluted with water) consisted of Scala. […] Fungal control rating: Three days after inoculation with Botrytis, the percent necrotic area under the inoculation droplet was determined. Since the areas under the blank (0.01% w/v Triton X-100) were 100% infected, fungal control was expressed as 100 minus the percent necrotic area, and thus 0% infected is 100% fungal control (n=3 leaves/compound, 5 inoculation droplets/leaf, Table 2).

Turning to `OCCc1c(Br)cc(Br)c2cccnc12` [Example 1, 5,7-dibromo-8-(2-hydroxyethyl)quinoline], the melting point (usually the temperature, or range, at which the solid turns liquid) was in the range of 128 to 131 °C. Also, in the data set on Cercospora arachidicola (fungicide rate 2 ppm), the “Control of fungi (full, partial, none)” value is recorded as “None”. Besides, in the data set on Cercospora arachidicola (fungicide rate 10 ppm), the “Control of fungi (full, partial, none)” value is on record as “Full”. Further, the “Control of fungi (full, partial, none)” value in the data set on Cercospora arachidicola (fungicide rate 20 ppm) is reported as “Full”. Moreover, in the data set with Pythium aphanidermatum (fungicide rate 2 ppm), the “Control of fungi (full, partial, none)” value is recorded as “Full”. For the same compound, the “Control of fungi (full, partial, none)” value in the data set on Pythium aphanidermatum (fungicide rate 10 ppm) is reported as “Full”. For the same compound, in the data set on Pythium aphanidermatum (fungicide rate 20 ppm), the “Control of fungi (full, partial, none)” value is listed as “Full”. Also, the “Control of fungi (full, partial, none)” value in the data set on Monilinia laxa (fungicide rate 2 ppm) was “Full”. The “Control of fungi (full, partial, none)” value in the data set on Monilinia laxa (fungicide rate 10 ppm) is recorded as “Full”. For the same compound, the “Control of fungi (full, partial, none)” value with Monilinia laxa (fungicide rate 20 ppm) is “Full”. The “Control of fungi (full, partial, none)” value in the data set on Mycosphaerella fijiensis (fungicide rate 2 ppm) was “Full”. The “Control of fungi (full, partial, none)” value with Mycosphaerella fijiensis (fungicide rate 10 ppm) was “Full”. The “Control of fungi (full, partial, none)” value in the data set on Mycosphaerella fijiensis (fungicide rate 20 ppm) was “Full”. Moreover, in the data set on Botrytis cinerea [1] (fungicide rate 2 ppm), the “Control of fungi (full, partial, none)” value is “Partial”. Moreover, the “Control of fungi (full, partial, none)” value with Botrytis cinerea [1] (fungicide rate 10 ppm) is “Full”. Also, the “Control of fungi (full, partial, none)” value in the data set with Botrytis cinerea [1] (fungicide rate 20 ppm) is on record as “Full”. Also, the “Control of fungi (full, partial, none)” value with Rhizoctonia solani (fungicide rate 2 ppm) is reported as “Full”. Also, the “Control of fungi (full, partial, none)” value with Rhizoctonia solani (fungicide rate 10 ppm) is listed as “Full”. Further, the “Control of fungi (full, partial, none)” value with Rhizoctonia solani (fungicide rate 20 ppm) is “Full”. Also, in the data set on Sclerotinia sclerotiorum (fungicide rate 2 ppm), the “Control of fungi (full, partial, none)” value is “Full”. Moreover, the “Control of fungi (full, partial, none)” value with Sclerotinia sclerotiorum (fungicide rate 10 ppm) was “Full”. Moreover, the “Control of fungi (full, partial, none)” value in the data set with Sclerotinia sclerotiorum (fungicide rate 20 ppm) is “Full”. Moreover, the Phytotoxity entry in [2] is “Slight”. This compound also came in with a Botrytis cinerea control in the data set with Botrytis cinerea [3] of 100%.
